One data set concerns the target Opiate δ1 (Homo sapiens, UniProt P41143). As to the kind of experiment: In vitro profiling, binding assay. Here is the method: (§1) Binding and functional assays of CGAs with the proteins known to be pharmacological targets related to the CVS, CNS, and GI functions were conducted. […] In the binding assay, we measured the radiation activity of the solution containing filtered proteins that bound to the tested compound or high-affinity ligand, while in the functional assays, we measured the reaction product. The ability of the test compound to interact with the tested targets was measured as the inhibition of ligand binding to the target or reaction product production (% inhibition).

Another data set addresses 5-HT2A (Homo sapiens, UniProt P28223). The data set can be described thus: In vitro profiling, binding assay. Here is the method: as §1
The target in a further data set is Histamine H1 (Homo sapiens, UniProt P35367). As to the kind of experiment: In vitro profiling, binding assay. How it is done: as §1
The next data set addresses Dopamine D2L (Homo sapiens, UniProt P14416). As to the kind of experiment: In vitro profiling, binding assay. How it is done: as §1
Data set [1] has as its target T1, Cholecystokinin CCK1 (CCKA) (Homo sapiens, UniProt P32238).
T1 sequence (P32238 1-428): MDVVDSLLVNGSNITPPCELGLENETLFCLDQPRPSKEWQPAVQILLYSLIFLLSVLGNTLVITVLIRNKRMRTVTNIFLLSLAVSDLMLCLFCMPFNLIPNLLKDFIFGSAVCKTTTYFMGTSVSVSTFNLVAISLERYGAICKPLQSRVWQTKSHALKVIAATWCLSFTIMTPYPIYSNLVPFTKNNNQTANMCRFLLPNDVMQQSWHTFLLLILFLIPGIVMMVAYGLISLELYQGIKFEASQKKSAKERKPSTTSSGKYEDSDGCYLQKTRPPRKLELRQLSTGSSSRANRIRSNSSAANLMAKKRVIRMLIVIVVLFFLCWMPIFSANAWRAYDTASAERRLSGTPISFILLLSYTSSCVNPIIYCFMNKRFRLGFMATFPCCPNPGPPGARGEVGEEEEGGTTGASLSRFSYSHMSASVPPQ
The data set can be described thus: In vitro profiling, binding assay. How it is done: as §1

The target of the next data set is Opiate μ (Homo sapiens, UniProt P35372). The data set can be described thus: In vitro profiling, binding assay. How it is done:
as §1

Another data set has as its target Opiate κ (Homo sapiens, UniProt P41145). The data set can be described thus: In vitro profiling, binding assay. Here is the method: as §1
Another data set deals with Histamine H2 (Homo sapiens, UniProt P25021). As to the kind of experiment: In vitro profiling, binding assay. Here is the method:
as §1

For a further data set, the target named is T2, 5-HT3 (Homo sapiens, UniProt P46098).
T2 sequence (P46098 24-478): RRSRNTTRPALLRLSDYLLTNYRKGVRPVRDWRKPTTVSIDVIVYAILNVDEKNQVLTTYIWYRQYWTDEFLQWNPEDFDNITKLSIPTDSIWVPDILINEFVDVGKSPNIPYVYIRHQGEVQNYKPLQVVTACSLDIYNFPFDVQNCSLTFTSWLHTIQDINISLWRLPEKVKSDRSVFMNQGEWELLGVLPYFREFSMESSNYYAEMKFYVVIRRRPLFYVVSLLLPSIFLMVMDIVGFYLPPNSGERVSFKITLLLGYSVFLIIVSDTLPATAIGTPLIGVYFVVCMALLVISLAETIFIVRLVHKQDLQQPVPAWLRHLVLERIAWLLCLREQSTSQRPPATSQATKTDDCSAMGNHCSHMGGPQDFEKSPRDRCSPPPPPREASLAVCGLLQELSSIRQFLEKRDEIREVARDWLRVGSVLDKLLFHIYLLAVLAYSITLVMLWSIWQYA
The data set can be described thus: In vitro profiling, binding assay. Here is the method:
as §1

Data set [2] concerns the target Transporter, Dopamine (DAT) (Homo sapiens, UniProt Q01959). The data set can be described thus: In vitro profiling, binding assay. Here is the method: as §1
The test system of a further data set is Phosphodiesterase PDE4. As to the kind of experiment: In vitro profiling, functional assay. The note with it: 30 µM. In kind it is biochemical, human. Here is the method: as §1
The subject of the next data set is rat hippocampal slices. As to the kind of experiment: Electrophysiological assay of hippocampal slices, epileptiform discharge (ED) recording. Particulars: ± SEM. How it is done: A hippocampal slice was placed on the multielectrode array (200 μm distant electrodes) to ensure the multi-electrode grid covered the major surface of the slice. […]
ED frequency (in Hz) was determined as follows: raw data were filtered with a Low Pass filter (Butterworth second order filter) set to 20 Hz. ED number was monitored on-line (epileptiform event amplitudes had to be higher than 15 μV to be counted; a dead time of 200 ms was applied for each epileptiform event detected). ED frequency was averaged using 30-s time intervals. Results are presented as mean frequency of ED for the last 2 min of each condition (± SEM).

In data set [3] the test system is isolated perfused guinea pig heart. The data set can be described thus: Langendorff perfused heart assay. Particulars: for % change in LV dP/dt max from pre-application / % change in LVPSP from pre-application: mean ± SD, n = 3. Here is the method:
After injection of heparin sodium (100 unit/body, AY Pharmaceuticals Co., Ltd.) into the jugular vein, the animals were exsanguinated. […] A stainless-steel cannula was inserted in the aorta, followed by attachment to the Langendorff apparatus (Physio-Tech Co., Ltd., Tokyo, Japan). The attached heart was perfused with KH solution at 37.0 ± 0.2 °C. Before use, the KH solution was aerated by a gas mixture (95%O2 + 5%CO2) for 30 min or longer. The perfusion pressure was maintained at 70 mmHg.
DMSO solutions at 1, 10, and 100 mM were diluted 1000-fold with the KH solution to make test solutions of 1, 10, and 100 μM, respectively. The test solutions were cumulatively applied at a flow rate of 20 mL/min for 10 min with each concentration.
An ECG signal was recorded using electrodes fixed on the ventricular apex (+), and a stainless-steel cannula was inserted in the aorta (−), and LVP was recorded from the balloon catheter placed in the left ventricle. The ECG signals were amplified with an amplifier (DAM50; World Precision Instruments, Inc.) and LVPs were monitored with a Pressure Monitor 4 (Living Systems Instrumentation). Both of the waveforms were recorded with computer software (1000 Hz; iox2 and ecgAUTO3; emka Technologies).
Before measurement, the in-balloon pressure was adjusted so that the diastolic blood pressure would be in the range of 0 to 10 mmHg. The cardiac parameters, such as HR, PR interval, QRS duration, QT interval, QTc interval (Fridericia’s formula: QTc = QT/RR^1/3), LVPSP, left-ventricular end diastolic pressure (LVEDP), and LV dP/dt max, were measured.
Data are expressed as mean (± SD). The measured % changes from the pre-application value were used for analyses. Williams test was carried out between the solvent-control and test compound. Student’s t-test was carried out between the solvent-control and positive-control. […] The data from the solvent control and drug groups were tested by F test for homogeneity of variance. F test was performed at the significance level of 5%. When the variances were homogeneous, Student’s t-test was subsequently performed. When the variances were nonhomogeneous, Welch t-test was selected.

Where [4] appears, read: 30 µM, Opiate δ1, read-out: % Inhibition.
The mark [5] stands for this setting: 30 µM, Dopamine D2L, read-out: % Inhibition.
[6] abbreviates: 30 µM, Cholecystokinin CCK1 (CCKA), read-out: % Inhibition.
[7] abbreviates: 30 µM, Opiate μ, read-out: % Inhibition.
[8] abbreviates: 30 µM, Opiate κ, read-out: % Inhibition.
Setting [9] is: 30 µM, Histamine H2, read-out: % Inhibition.
[10] abbreviates: 30 µM, 5-HT3, read-out: % Inhibition.
Setting [11] is: 30 µM, Transporter, Dopamine (DAT), read-out: % Inhibition.
[12] abbreviates: 10 µM compound, co-exposure with 50 μM 4-AP.

Values joined by “and” are separate entries in the source; they are usually repeats but may differ in a detail not shown here. Equal values may be shown once. Read-outs that look alike come from different tables or passages of the source.

For orientation: inhibition means the change of the read-out against control, counted positive when it falls. The % Inhibition is the change of the read-out against control, counted positive when it falls.

Chain of Transporter, Dopamine (DAT) (Q01959 whole entry): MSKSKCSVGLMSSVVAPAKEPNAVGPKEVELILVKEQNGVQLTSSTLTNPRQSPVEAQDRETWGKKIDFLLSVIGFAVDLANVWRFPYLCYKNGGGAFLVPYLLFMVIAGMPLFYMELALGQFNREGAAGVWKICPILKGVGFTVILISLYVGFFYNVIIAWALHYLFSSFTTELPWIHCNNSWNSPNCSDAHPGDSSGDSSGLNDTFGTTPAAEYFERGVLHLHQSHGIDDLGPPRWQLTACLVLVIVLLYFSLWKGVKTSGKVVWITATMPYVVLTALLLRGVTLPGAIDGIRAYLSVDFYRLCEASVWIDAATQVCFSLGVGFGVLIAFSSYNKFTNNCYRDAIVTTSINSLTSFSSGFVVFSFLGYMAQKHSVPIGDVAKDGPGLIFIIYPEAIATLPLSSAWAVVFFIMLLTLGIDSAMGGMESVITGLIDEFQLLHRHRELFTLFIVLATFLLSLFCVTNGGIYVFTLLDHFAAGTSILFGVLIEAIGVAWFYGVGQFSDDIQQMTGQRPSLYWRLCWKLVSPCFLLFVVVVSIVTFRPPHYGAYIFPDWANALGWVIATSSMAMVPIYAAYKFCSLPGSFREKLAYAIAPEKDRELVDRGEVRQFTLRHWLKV
Chain of Opiate δ1 (P41143 whole entry): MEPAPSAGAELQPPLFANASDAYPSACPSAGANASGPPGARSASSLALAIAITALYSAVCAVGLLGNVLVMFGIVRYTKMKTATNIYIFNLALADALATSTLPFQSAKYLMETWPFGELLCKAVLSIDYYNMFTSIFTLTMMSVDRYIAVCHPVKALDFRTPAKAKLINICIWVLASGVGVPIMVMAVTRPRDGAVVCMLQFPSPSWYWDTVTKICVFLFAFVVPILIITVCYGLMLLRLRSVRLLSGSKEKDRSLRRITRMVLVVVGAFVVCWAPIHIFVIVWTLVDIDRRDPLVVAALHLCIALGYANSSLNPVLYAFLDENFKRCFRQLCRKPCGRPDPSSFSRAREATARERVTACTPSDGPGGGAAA
Chain of Opiate κ (P41145 whole entry): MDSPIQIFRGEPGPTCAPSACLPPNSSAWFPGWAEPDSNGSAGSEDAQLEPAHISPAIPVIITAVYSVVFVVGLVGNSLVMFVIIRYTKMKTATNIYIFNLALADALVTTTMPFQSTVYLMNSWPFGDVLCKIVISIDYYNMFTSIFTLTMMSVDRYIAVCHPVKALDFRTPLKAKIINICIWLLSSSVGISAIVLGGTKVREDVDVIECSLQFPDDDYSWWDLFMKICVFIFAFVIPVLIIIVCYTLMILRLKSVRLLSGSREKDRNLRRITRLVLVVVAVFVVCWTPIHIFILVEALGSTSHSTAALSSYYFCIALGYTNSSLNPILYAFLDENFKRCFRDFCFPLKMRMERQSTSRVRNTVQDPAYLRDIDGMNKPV
Chain of Opiate μ (P35372 whole entry): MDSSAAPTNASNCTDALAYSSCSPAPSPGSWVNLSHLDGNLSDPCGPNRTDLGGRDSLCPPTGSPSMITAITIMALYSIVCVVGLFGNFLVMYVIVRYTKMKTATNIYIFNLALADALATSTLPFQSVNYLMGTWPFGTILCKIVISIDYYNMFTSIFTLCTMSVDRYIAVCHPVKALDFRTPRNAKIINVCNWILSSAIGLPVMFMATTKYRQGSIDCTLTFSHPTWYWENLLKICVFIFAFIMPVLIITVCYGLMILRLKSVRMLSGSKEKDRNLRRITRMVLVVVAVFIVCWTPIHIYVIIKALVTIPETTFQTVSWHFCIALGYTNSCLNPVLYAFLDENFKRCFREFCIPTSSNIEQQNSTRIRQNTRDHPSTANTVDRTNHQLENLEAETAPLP
Chain of Histamine H2 (P25021 whole entry): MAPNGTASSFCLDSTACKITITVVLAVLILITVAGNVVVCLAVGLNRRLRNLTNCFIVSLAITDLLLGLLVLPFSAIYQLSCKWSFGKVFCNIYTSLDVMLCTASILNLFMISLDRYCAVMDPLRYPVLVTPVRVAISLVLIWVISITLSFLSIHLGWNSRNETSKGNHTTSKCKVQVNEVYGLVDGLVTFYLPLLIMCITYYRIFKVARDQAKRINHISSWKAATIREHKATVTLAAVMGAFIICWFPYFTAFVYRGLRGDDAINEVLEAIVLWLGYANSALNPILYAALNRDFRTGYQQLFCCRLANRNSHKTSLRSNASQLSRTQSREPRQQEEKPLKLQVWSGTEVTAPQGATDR
Chain of Histamine H1 (P35367 whole entry): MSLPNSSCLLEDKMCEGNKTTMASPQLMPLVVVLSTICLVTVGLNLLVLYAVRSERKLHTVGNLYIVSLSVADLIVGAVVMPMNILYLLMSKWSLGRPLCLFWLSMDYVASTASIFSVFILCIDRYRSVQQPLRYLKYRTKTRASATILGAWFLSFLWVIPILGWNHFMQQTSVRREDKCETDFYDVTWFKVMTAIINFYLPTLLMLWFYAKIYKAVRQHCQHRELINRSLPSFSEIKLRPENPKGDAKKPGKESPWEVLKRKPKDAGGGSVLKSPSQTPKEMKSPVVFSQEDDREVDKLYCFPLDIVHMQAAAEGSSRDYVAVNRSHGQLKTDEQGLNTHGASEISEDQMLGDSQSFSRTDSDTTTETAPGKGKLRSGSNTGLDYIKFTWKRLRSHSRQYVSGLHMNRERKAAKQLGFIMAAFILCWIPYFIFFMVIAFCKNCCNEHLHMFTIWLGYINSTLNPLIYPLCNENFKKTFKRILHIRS
Chain of 5-HT2A (P28223 whole entry): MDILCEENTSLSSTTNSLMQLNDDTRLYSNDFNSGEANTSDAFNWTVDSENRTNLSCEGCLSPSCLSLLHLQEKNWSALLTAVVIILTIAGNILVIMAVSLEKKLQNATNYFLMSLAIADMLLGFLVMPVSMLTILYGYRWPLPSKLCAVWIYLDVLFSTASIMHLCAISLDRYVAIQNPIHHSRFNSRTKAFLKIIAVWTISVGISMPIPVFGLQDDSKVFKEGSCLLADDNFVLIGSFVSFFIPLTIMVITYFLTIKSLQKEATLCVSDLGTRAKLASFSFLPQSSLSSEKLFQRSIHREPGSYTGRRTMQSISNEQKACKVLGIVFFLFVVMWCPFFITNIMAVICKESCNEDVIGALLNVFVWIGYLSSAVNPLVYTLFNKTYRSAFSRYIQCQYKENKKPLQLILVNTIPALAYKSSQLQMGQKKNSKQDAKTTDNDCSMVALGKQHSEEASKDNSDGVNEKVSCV
Chain of Dopamine D2L (P14416 whole entry): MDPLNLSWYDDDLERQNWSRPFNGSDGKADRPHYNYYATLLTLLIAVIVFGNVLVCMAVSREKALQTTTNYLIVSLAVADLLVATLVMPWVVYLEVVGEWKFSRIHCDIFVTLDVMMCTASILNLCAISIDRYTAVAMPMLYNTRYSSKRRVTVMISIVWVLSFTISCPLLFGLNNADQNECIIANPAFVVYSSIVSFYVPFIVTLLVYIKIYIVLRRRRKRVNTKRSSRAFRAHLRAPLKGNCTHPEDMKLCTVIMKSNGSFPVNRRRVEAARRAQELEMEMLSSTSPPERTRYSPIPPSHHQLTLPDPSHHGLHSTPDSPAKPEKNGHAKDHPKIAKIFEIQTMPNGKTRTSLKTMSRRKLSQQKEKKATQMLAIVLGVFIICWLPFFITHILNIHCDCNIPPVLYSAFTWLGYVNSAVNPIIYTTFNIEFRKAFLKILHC

Consider `O=C(/C=C/c1ccc(O)c(O)c1)O[C@H]1C[C@@](O)(C(=O)O)C[C@H](O)[C@@H]1O` [5-CQA, 5-O-caffeoylquinic acid], for which the inhibition at 30 µM is 5% at Opiate δ1 (setting [4]); 3% at 5-HT2A; -12% on Histamine H1; 7% on Dopamine D2L (setting [5]); 10% in data set [1] (setting [6]); 8% at Opiate μ (setting [7]). The inhibition at 30 µM at Opiate κ (setting [8]) is -3%; at Histamine H2 (setting [9]), 0%; at 5-HT3 (setting [10]), -9%; in data set [2] (setting [11]), -10%. For the same molecule, the “% Inhibition” value in the data set on Phosphodiesterase PDE4 was −6%. Further, the ED rate in the data set on rat hippocampal slices (setting [12]) is recorded as 0.38 ± 0.04 Hz. In addition, in data set [3] (100 μM), the “% change in LV dP/dt max from pre-application” value was −12.0 ± 6.2% and −12%. The “% change in LVPSP from pre-application” value in data set [3] (100 μM) is listed as −8.5 ± 6.2%.

As for `COc1cc(/C=C/C(=O)O[C@H]2C[C@@](O)(C(=O)O)C[C@H](O)[C@@H]2O)ccc1O` [5-FQA, 5-O-feruloylquinic acid], the inhibition at 30 µM at Opiate δ1 (setting [4]) is 2%; at 5-HT2A, 8%; at Histamine H1, -22%; on Dopamine D2L (setting [5]), -8%; in data set [1] (setting [6]), 7%; on Opiate μ (setting [7]), 5%. Also, the inhibition at 30 µM is -7% on Opiate κ (setting [8]), -5% at Histamine H2 (setting [9]), -3% at 5-HT3 (setting [10]) and 6% in data set [2] (setting [11]). The “% Inhibition” value in the data set on Phosphodiesterase PDE4 was found to be 2%. In the data set with rat hippocampal slices (setting [12]), this molecule gave an ED rate of 0.46 ± 0.05 Hz.

Turning to `O=C(O)/C=C/c1ccc(O)c(O)c1` [CA, caffeic acid], the “% Inhibition” value is on record as 11% on Opiate δ1 (30 µM, Opiate δ1); −11% on Histamine H1 (30 µM); 12% in data set [1] (30 µM, Cholecystokinin CCK1 (CCKA)); −6% on Opiate μ (30 µM, Opiate μ); 3% on Opiate κ (30 µM, Opiate κ); −6% on Histamine H2 (30 µM, Histamine H2). For the same molecule, the “% Inhibition” value on 5-HT3 (30 µM, 5-HT3) is −5%; in data set [2] (30 µM, Transporter, Dopamine (DAT)), 2%; with Phosphodiesterase PDE4, 4%. Moreover, the inhibition at 30 µM at 5-HT2A came to 7%; at Dopamine D2L it was 16%. Moreover, the ED rate with rat hippocampal slices (setting [12]) is 0.55 ± 0.07 Hz; in the data set with rat hippocampal slices (follow-up test, 1 µM compound, co-exposure with 4-AP), 0.35 ± 0.03 Hz. In addition, the “% change in LV dP/dt max from pre-application” value in [3] (10 μM) is on record as −6.5 ± 1.6%; in data set [3] (100 μM), −8.8 ± 0.8%. Further, the “% change in LVPSP from pre-application” value in data set [3] (10 μM) is on record as −4.3 ± 0.8%; in data set [3] (100 μM) it was −6.2 ± 0.9%.

As to `COc1cc(/C=C/C(=O)O)ccc1O` [FA, ferulic acid], the inhibition at 30 µM on Opiate δ1 was 16%; on Dopamine D2L, 9%; in data set [1] it was 1%; on Opiate μ it was 4%; at Opiate κ, 3%; on Histamine H2, -5%. The inhibition at 30 µM on 5-HT3 was -13%; in data set [2], 0%. The “% Inhibition” value in the data set on Phosphodiesterase PDE4 came to 7%. Also, the ED rate in the data set with rat hippocampal slices (setting [12]) stood at 0.41 ± 0.04 Hz. Further, the “Effect on LVP” value in data set [3] (at 100 μM) is listed as “did not affect”. Also, the “Change in ECG parameters compared to solvent control” value in [3] (until 100 µM) is recorded as “no significant change”.

For the origin of these results see PMC6789782, “Safety Pharmacological Evaluation of the Coffee Component, Caffeoylquinic Acid, and Its Metabolites, Using Ex Vivo and In Vitro Profiling Assays” (Pharmaceuticals, 2019).
